Reference: US5891917A, “Certain acrylonitrile-sulfonamide derivatives” (Sugen, Inc., priority 1997, dated 1999)
Like-named read-outs stand apart in the source and are kept apart here.

What was measured:
[1] = biological target: T1, IGF-1R (Homo sapiens, UniProt P08069); test: Cellular IGF-1 Receptor ELISA; type: cell-based; details: 3T3/IGF-1R cells, 20 nM IGF-1
T1 construct: expressed in transfected cells; host or cells: 3T3/IGF-1R (mouse NIH 3T3 line overexpressing IGF-1R)
Procedure: Cellular IGF-1 Receptor ELISA (Version I)
(1). The cell line used in this assay is 3T3/IGF-1R, a cell line which overexpresses IGF-1 Receptor.
(2). 3T3/IGF-1R is grown in an incubator with 5% CO2 at 37° C. The growth media is DMEM+10% FBS (heat inactivated)+2mM L-Glutamine.
(3). For ELISA plate coating, the anti-IGF-1R antibody named 17-69 is used. Antibodies are purified by the Enzymology Lab, SUGEN, Inc.
(10). Insulin-like growth factor-1 from Promega (Cat# G5111).
(11). Polyclonal antiserum Anti-phosphotyrosine:
(1). The cells, grown in tissue culture dish (10 cm, Corning 25020-100) to 80-90% confluence, are harvested with Trypsin-EDTA (0.25%, 0.5 ml/D-100, GIBCO).
(2). Resuspend the cells in fresh DMEM +10% FBS+2 mM L-Glutamine, and transfer to 96-well tissue culture plate (Corning, 25806-96) at 20,000 cells/well (100 ul/well). Incubate for 1 day then replace medium to serum-free medium (90/ul) and incubate in 5% CO2 and 37° C. overnight.
(1). Coat the ELISA plate (Corning 25805-96) with Anti-IGF-1R Antibody at 0.5 ug/well in 100 ul PBS at least 2 hours. (2). Remove the coating solution, and replace with 100 ul Blocking Buffer, and shake for 30 minutes. Remove the blocking buffer and wash the plate just before adding lysate.
(1). The drugs are tested in serum-free condition.
(2). Dilute drug stock (in 100% DMSO) 1:10 with DMEM in 96-well poly-propylene plate, and transfer 10 ul/well of this solution to the cells to achieve final drug dilution 1:100, and final DMSO concentration of 1.0%. Incubate the cells in 5% CO2 at 37° C. for 2 hours.
(3). Prepare fresh cell lysis buffer (HNTG HNTG 2 ml EDTA 0.1 ml Na3VO4 0.1 ml Na4P2O7 0.1 ml H20 7.3 ml HNTG* 10 ml.
(4). After drug incubation for two hours, transfer 10 ul/well of 200nM IGF-1 Ligand in PBS to the cells (Final Conc=20 nM), and incubate at 5% CO2 at 37° C. for 10 minutes.
(5). Remove media and add 100 ul/well HNTG* and shake for 10 minutes. Look at cells under microscope to see if they are adequately lysed.
(6). Use a 12-channel pipette to scrape the cells from the plate, and homogenize the lysate by repeat aspiration and dispense. Transfer all the lysate to the antibody coated ELISA plate [V.2.(2)], and shake for 1 hour.
(7). Remove the lysate, wash the plate, transfer anti-pTyr (1:3,000 with TBST) 100 ul/well, and shake for 30 minutes.
(7). Remove anti-pTyr, wash the plate, transfer detection antibody (1:3,000 with TBST) 100 ul/well, and shake for 30 minutes.
(8). Remove detection antibody, wash the plate, and transfer fresh ABTS/H2O2 (1.2 ul H2O2 to 10 ml ABTS) 100 ul/well to the plate to start color development.
(9). Measure OD (410 nm) in Dynatec MR5000, which is connected to Ingres.

[2] = tested on: 3T3/HER2 cells; test: 3T3 Growth Assay (3T3/HER2); type: cell-based
Excerpt: The following examples illustrate the ability of the exemplary compounds to inhibit receptor tyrosine kinases, such as HER2 and/or EGFR. The following target cells were used for cellular kinase assays: NIH3T3 clone C7 (Honegger et al., supra) engineered to over-express human EGF receptor; NIH3T3 cells engineered to over-express a chimeric receptor containing the EGFR extracellular domain and the HER2 intracellular kinase domain; the human mammary carcinoma line BT474 (ATCC HTB2) expressing HER2; and the human glioblastoma line U1242 that expresses PDGFR-beta. Growth assays were carried out using human mammary epithelial SKBR3 (ATCC HTB30) cells (SKBR3 cells over-express HER2), SKOV3 (ATCC HTB77) human ovarian cancer cell line (SKOV3 cells also over-express HER2), A431 cells (A431 cells over-express EGFR) MCF7 human breast carcinoma cells, MCF7 cells overexpressing the HER2 kinase (MCF7-HER2), NIH3T3 cells, and NIH3T3 cells overexpressing the HER2 kinase (3T3-HER2.
The 3T3 growth assay was carried out as follows: […]
(1) HER2C7 (engineered to express HER2) and NIH3T3C7 (as the control) cells are used for this assay. NIH3T3C7 cells are seeded at 2500 cells/well, […] in 10% CS+2 mM GLN DMEM, in a 96 well plate; HER2C7 cells are seeded at 6000 cells/well, 100 μl/well in 2% FBS+2 mM GLN DMEM, in a 96 well plate. Cells are incubated at 37° C., 5% CO2 overnight to allow for cell attachment to the plate;
(2) The […] compound is added to the cells at day 2. The compounds are prepared in the appropriate growth medium (10% CS+2 mM) GLN DMEM for NIH3T3C7 cells; 2% FBS+2 mM GLN DMEM for HER2C7 cells) in a 96 well plate, and serially diluted. A total of 100 μl/well medium of the diluted compounds is added into the cells. The total volume of each well is 200 μl. Quadruplicates (wells) and 11 concentration points are applied to each compound tested.
(3) After the cells are treated with the compound for 4 days, the cells are washed with PBS and fixed with 200 μl/well ice-cold 10% TCA for one hour at 0°-5° C. condition.
(4) Remove TCA and rinse wells 5 times with deionized water. Dry plates upside down with paper towels. Stain cells with 0.4% SRB at 100 μl/well for 10 minutes.
(5) Pour off SRB and rinse plate 5 times with 1 % acetic acid. Dry plate completely.
(6) Solubilize the dye with 10 mM Tris-base at 100 μl/well for 10 minutes on a shaker.
(7) Read the plate at dual wavelengths at 570 nm and 630 nm on Dynatech Elisa plate reader.

[3] = read-out: Growth Data: 3T3/HER2 2% FBS
[4] = read-out: Growth Data: 3T3/HER2 10% FBS

T1 sequence (P08069 741-1367 limits assumed): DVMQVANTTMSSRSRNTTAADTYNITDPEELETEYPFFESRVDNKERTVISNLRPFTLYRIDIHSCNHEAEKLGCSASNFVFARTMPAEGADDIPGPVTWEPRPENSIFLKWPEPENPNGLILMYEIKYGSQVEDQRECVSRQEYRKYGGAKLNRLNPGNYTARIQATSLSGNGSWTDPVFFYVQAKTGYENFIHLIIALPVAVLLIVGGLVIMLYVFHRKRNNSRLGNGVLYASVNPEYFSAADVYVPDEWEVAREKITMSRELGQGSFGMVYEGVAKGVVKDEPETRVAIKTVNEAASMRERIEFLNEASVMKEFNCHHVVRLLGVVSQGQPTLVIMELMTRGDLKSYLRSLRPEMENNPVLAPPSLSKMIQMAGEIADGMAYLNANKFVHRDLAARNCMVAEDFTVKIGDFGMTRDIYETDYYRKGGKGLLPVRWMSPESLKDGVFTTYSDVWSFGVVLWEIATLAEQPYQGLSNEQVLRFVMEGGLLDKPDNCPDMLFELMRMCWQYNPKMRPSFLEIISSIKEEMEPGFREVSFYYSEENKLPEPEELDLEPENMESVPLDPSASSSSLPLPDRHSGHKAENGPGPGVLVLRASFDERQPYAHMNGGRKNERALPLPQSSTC
T1 sequence (P08069 31-736 partner limits assumed): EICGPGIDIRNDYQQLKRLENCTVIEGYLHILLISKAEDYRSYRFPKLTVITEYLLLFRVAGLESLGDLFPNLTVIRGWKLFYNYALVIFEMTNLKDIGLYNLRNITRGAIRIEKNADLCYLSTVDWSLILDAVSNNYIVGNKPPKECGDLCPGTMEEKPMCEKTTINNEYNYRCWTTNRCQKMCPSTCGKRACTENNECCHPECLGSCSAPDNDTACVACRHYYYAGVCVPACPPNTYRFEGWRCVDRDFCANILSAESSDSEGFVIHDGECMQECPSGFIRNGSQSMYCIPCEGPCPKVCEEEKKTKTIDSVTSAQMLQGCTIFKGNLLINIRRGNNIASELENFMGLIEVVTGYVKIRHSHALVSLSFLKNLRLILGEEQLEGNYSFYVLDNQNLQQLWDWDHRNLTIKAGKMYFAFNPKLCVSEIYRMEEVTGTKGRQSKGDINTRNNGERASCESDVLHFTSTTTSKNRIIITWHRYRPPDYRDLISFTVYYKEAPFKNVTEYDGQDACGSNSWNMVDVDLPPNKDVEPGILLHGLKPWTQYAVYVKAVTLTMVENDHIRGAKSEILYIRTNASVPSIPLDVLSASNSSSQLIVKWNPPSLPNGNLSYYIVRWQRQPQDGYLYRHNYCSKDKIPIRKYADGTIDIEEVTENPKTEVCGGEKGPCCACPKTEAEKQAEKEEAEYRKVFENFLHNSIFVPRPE

IC50 [1] [µM] | SMILES | IC50 [2, 3] [µM] | IC50 [2, 4] [µM]
69 | CC(C)c1cc(/C=C(\C#N)S(=O)(=O)/C(C#N)=C/c2cc(C(C)C)c(O)c(C(C)C)c2)cc(C(C)C)c1O [Compound 745] | – | –
> 100 | CC(C)c1cc(/C=C(\C#N)S(=O)(=O)c2ccccn2)cc(C(C)C)c1O [Compound 747] | > 100 | > 100
> 100 | Cc1cc(/C=C(\C#N)S(=O)(=O)c2ccccc2)cc(C)c1O [Compound 748] | > 100 | > 100
> 100 | Cc1cc(/C=C(\C#N)S(=O)(=O)Cc2cccc(C(F)(F)F)c2)cc(C)c1O [Compound 739] | – | –
> 100 | CC(C)(C)c1cc(/C=C(\C#N)S(=O)(=O)c2cccs2)cc(C(C)(C)C)c1O [Compound 742] | 7 | 38
> 100 | Cc1cc(/C=C(\C#N)S(=O)(=O)c2ccc(F)cc2)cc(C)c1O [Compound 744] | > 100 | > 100
28.3 | CC(C)c1cc(/C=C(\C#N)S(=O)(=O)c2ccc(F)cc2)cc(C(C)C)c1O [Compound 741, (E)-3-(3,5-Diisopropyl-4-hydroxyphenyl)-2-(4-fluorophenylsulfonyl)acrylonitrile] | 15 | 75
> 100 | CC(C)(C)c1cc(/C=C(\C#N)S(=O)(=O)c2ccsc2)cc(C(C)(C)C)c1O [Compound 746] | 7 | 40
> 100 | N#C/C(=C\c1ccc(O)c(O)c1)S(=O)(=O)c1cccs1 [Compound 743, (E)-3-(3,4-Dihydroxyphenyl)-2-[(thien-2-yl)sulfonyl]acrylonitrile] | – | –
> 100 | CC(C)(C)c1cc(/C=C(\C#N)S(=O)(=O)c2ccc(F)cc2)cc(C(C)(C)C)c1O [Compound 740] | 3.8 | 20

The next lines start with the compound.

SMILES | IC50 [1] [µM] | IC50 [2, 3] [µM] | IC50 [2, 4] [µM]
N#C/C(=C\c1ccc(O)cc1Cl)S(=O)(=O)NCCCc1ccccc1 [Compound 734] | 93.9 | 55 | > 100
CC(C)c1cc(/C=C(\C#N)S(=O)(=O)NCc2ccccc2)cc(C(C)C)c1O [Compound 732] | 11.8 | 15 | 95
CC(C)c1cc(/C=C(\C#N)S(=O)(=O)c2ccsc2)cc(C(C)C)c1O [Compound 738] | > 100 | 45 | > 100
CC(C)(C)c1cc(/C=C(\C#N)S(=O)(=O)Cc2cccc(C(F)(F)F)c2)cc(C(C)(C)C)c1O [Compound 735] | > 100 | 5 | 22
N#C/C(=C\c1ccc(O)cc1Cl)S(=O)(=O)NCc1ccccc1 [Compound 733] | > 100 | 60 | > 100
CC(C)c1cc(/C=C(\C#N)S(=O)(=O)c2ccccc2)cc(C(C)C)c1O [Compound 731] | 29.2 | 12 | 70
CC(C)c1cc(/C=C(\C#N)S(=O)(=O)c2cccs2)cc(C(C)C)c1O [Compound 737] | 93.5 | 40 | 90
CC(C)c1cc(/C=C(\C#N)S(=O)(=O)Cc2cccc(C(F)(F)F)c2)cc(C(C)C)c1O [Compound 736] | 19 | 18 | 55
